ChEMBL document CHEMBL1201862, “PubChem BioAssay data set” (2004)
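Results reflect a 48-hour exposure of cells in 96-well plates to compound at five concentrations. GI50 marks 50% less growth.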 Calls of active or inactive are those of the source. No stated cut-off is given here; in the data, active = GI50 up to about 1.1 µM and inactive = higher.

Experiments:
Assay in all cases: NCI anticancer screen, dose series, 48 h
RPMI-8226 = tested on: RPMI-8226
OVCAR-5 = tested on: OVCAR-5
NCI-H226 = tested on: NCI-H226
SNB-75 = tested on: SNB-75
SF-268 = tested on: SF-268
TK-10 = tested on: TK-10
MDA-MB-231 = tested on: MDA-MB-231
HT-29 = tested on: HT-29
SW-620 = tested on: SW-620
SK-MEL-5 = tested on: SK-MEL-5
HCC 2998 = tested on: HCC 2998
SK-MEL-2 = tested on: SK-MEL-2
EKVX = tested on: EKVX
Hs-578T = tested on: Hs-578T
BT-549 = tested on: BT-549
MDA-MB-435 = tested on: MDA-MB-435
NCI-H460 = tested on: NCI-H460
HL-60 = tested on: HL-60
LOX IMVI = tested on: LOX IMVI

| SMILES | GI50 (RPMI-8226) | GI50 (OVCAR-5) | GI50 (NCI-H226) | GI50 (SNB-75) | GI50 (SF-268) | GI50 (TK-10) | GI50 (MDA-MB-231) | GI50 (HT-29) | GI50 (SW-620) | GI50 (SK-MEL-5) | GI50 (HCC 2998) | GI50 (SK-MEL-2) | GI50 (EKVX) | GI50 (Hs-578T) | GI50 (BT-549) | GI50 (MDA-MB-435) | GI50 (NCI-H460) | GI50 (HL-60) | GI50 (LOX IMVI) |
| --- | --- | --- | --- | --- | --- | --- | --- | --- | --- | --- | --- | --- | --- | --- | --- | --- | --- | --- | --- |
| NC1CC(=O)c2sccc21 (stereo unspecified) | > 100 µM (inactive) | > 100 µM (inactive) | > 100 µM (inactive) | > 100 µM (inactive) | > 100 µM (inactive) | > 100 µM (inactive) | > 100 µM (inactive) | > 100 µM (inactive) | > 100 µM (inactive) | > 100 µM (inactive) | > 100 µM (inactive) | 27.9 µM (inactive) | > 100 µM (inactive) | > 100 µM (inactive) | > 100 µM (inactive) | > 100 µM (inactive) |  |  |  |
| O=c1ss/c(=N\c2ccccc2)n1-c1ccccc1 | 21.4 µM (inactive) | 40.2 µM (inactive) | 20.1 µM (inactive) | 21.9 µM (inactive) | 18.5 µM (inactive) | 50.6 µM (inactive) | 25.9 µM (inactive) | 38.5 µM (inactive) | 24.4 µM (inactive) | 32.4 µM (inactive) | 36.8 µM (inactive) | 23.2 µM (inactive) | 33.7 µM (inactive) | 32.4 µM (inactive) |  | 31.9 µM (inactive) | 81.7 µM (inactive) | 31.1 µM (inactive) | 19.3 µM (inactive) |
| O=C1CC(Cc2n[nH]c3c2CCCC3)CC(=O)N1 | > 100 µM (inactive) | > 100 µM (inactive) | > 100 µM (inactive) | > 100 µM (inactive) | > 100 µM (inactive) | > 100 µM (inactive) | > 100 µM (inactive) | > 100 µM (inactive) | > 100 µM (inactive) | > 100 µM (inactive) | > 100 µM (inactive) | > 100 µM (inactive) | > 100 µM (inactive) |  | > 100 µM (inactive) | > 100 µM (inactive) |  | > 100 µM (inactive) | > 100 µM (inactive) |
| CCc1cc2c(c3c1CCCC3=O)CC1(C2)Cc2cc(CC)c3c(c2C1)C(=O)CCC3 | 46.9 µM (inactive) | > 100 µM (inactive) | > 100 µM (inactive) | 30.5 µM (inactive) | > 100 µM (inactive) | > 100 µM (inactive) | 36.5 µM (inactive) | 76.2 µM (inactive) | > 100 µM (inactive) | 54.3 µM (inactive) | > 100 µM (inactive) | > 100 µM (inactive) | > 100 µM (inactive) | > 100 µM (inactive) |  | 47.2 µM (inactive) | 93.8 µM (inactive) | 61 µM (inactive) | > 100 µM (inactive) |
| CSc1nc(C)c2c(n1)N(c1ccc(Cl)cc1)CC2 | > 100 µM (inactive) | > 100 µM (inactive) | > 100 µM (inactive) | 0.0946 µM (active) | > 100 µM (inactive) | > 100 µM (inactive) | 42.3 µM (inactive) | > 100 µM (inactive) | > 100 µM (inactive) | > 100 µM (inactive) | > 100 µM (inactive) | > 100 µM (inactive) | > 100 µM (inactive) | > 100 µM (inactive) |  | > 100 µM (inactive) | > 100 µM (inactive) |  | > 100 µM (inactive) |
| C(#C[C@@]12CCC[C@@H]1NCO2)c1ccc2c(c1)OCO2 | 36.6 µM (inactive) | > 100 µM (inactive) | > 100 µM (inactive) | 45.1 µM (inactive) | 65.2 µM (inactive) | 73.3 µM (inactive) | > 100 µM (inactive) | 32.2 µM (inactive) | 81.3 µM (inactive) | 33.3 µM (inactive) | 17.6 µM (inactive) | > 100 µM (inactive) | > 100 µM (inactive) | 37.8 µM (inactive) |  | 61.1 µM (inactive) | 50.9 µM (inactive) | 24 µM (inactive) | 46.6 µM (inactive) |
| COC(=O)c1cccc(C)c1C1CN=NC12Cc1cc(C)cc(C)c1C2=O (stereo unspecified) | 33.5 µM (inactive) | > 100 µM (inactive) | 61.5 µM (inactive) | 24.9 µM (inactive) | 39.8 µM (inactive) | > 100 µM (inactive) | 30.1 µM (inactive) | 24.7 µM (inactive) | 29.7 µM (inactive) | 31.6 µM (inactive) | 26.5 µM (inactive) |  | 26.3 µM (inactive) | 47 µM (inactive) |  | 30.1 µM (inactive) | 30.8 µM (inactive) | 17.9 µM (inactive) | > 100 µM (inactive) |
| CN1C(=O)C2(C=CC(O)CC2)c2ccccc21 (stereo unspecified) | > 100 µM (inactive) | > 100 µM (inactive) | > 100 µM (inactive) | > 100 µM (inactive) | > 100 µM (inactive) | > 100 µM (inactive) | > 100 µM (inactive) | > 100 µM (inactive) | > 100 µM (inactive) | > 100 µM (inactive) | > 100 µM (inactive) | > 100 µM (inactive) | > 100 µM (inactive) |  |  | > 100 µM (inactive) | > 100 µM (inactive) | > 100 µM (inactive) | > 100 µM (inactive) |
| COc1ccc(NC(=O)CSC(=O)c2ccccc2)c(SCCSSCCSc2cc(OC)ccc2NC(=O)CSC(=O)c2ccccc2)c1 | > 100 µM (inactive) | > 100 µM (inactive) | > 100 µM (inactive) | > 100 µM (inactive) | 67.5 µM (inactive) | > 100 µM (inactive) |  | > 100 µM (inactive) | > 100 µM (inactive) | > 100 µM (inactive) |  | 27.9 µM (inactive) | 72.9 µM (inactive) | > 100 µM (inactive) | > 100 µM (inactive) | > 100 µM (inactive) | 4.62 µM (inactive) | 4.22 µM (inactive) | 20.7 µM (inactive) |
| Cc1noc(-c2ccc(C(=O)O)[nH]2)c1Br | > 100 µM (inactive) | > 100 µM (inactive) |  | 26.6 µM (inactive) | 46.1 µM (inactive) | 31.5 µM (inactive) | > 100 µM (inactive) | > 100 µM (inactive) | 68.9 µM (inactive) | > 100 µM (inactive) | 65 µM (inactive) | 87.9 µM (inactive) | 30.9 µM (inactive) | 42.3 µM (inactive) | > 100 µM (inactive) | > 100 µM (inactive) | > 100 µM (inactive) |  |  |
| O=C(Nc1nnc(S)[nH]1)C(=O)C1C(=O)Nc2ccccc2[S+]1[O-] (stereo unspecified) |  |  |  | > 100 µM (inactive) | > 100 µM (inactive) | > 100 µM (inactive) |  | > 100 µM (inactive) | > 100 µM (inactive) | > 100 µM (inactive) | > 100 µM (inactive) |  | > 100 µM (inactive) |  |  |  | > 100 µM (inactive) | > 100 µM (inactive) | > 100 µM (inactive) |
| Cc1ccc([N+](=O)[O-])cc1S(=O)(=O)Nc1ccc(C2=NN(S(=O)(=O)c3cc([N+](=O)[O-])ccc3C)C(c3ccccc3O)C2)cc1 (stereo unspecified) | 51.1 µM (inactive) | > 100 µM (inactive) | > 100 µM (inactive) | 31.1 µM (inactive) | 26.5 µM (inactive) | 52.5 µM (inactive) | 44.6 µM (inactive) | > 100 µM (inactive) | > 100 µM (inactive) | > 100 µM (inactive) | > 100 µM (inactive) | 31.5 µM (inactive) | 57.7 µM (inactive) |  | > 100 µM (inactive) | > 100 µM (inactive) | > 100 µM (inactive) | > 100 µM (inactive) | > 100 µM (inactive) |
| C=CC1(CCC(Br)C(C)(C)Cl)CO1 (stereo unspecified) | > 10 µM (inactive) | > 10 µM (inactive) |  | > 10 µM (inactive) | > 10 µM (inactive) | > 10 µM (inactive) | > 10 µM (inactive) | > 10 µM (inactive) | > 10 µM (inactive) | > 10 µM (inactive) | > 10 µM (inactive) | > 10 µM (inactive) | > 10 µM (inactive) |  | > 10 µM (inactive) | > 10 µM (inactive) | > 10 µM (inactive) |  |  |
| CCC(=O)C1(c2ccccc2)CCN(C)CC1 | > 100 µM (inactive) | > 100 µM (inactive) |  | > 100 µM (inactive) | > 100 µM (inactive) | > 100 µM (inactive) |  | > 100 µM (inactive) | > 100 µM (inactive) | > 100 µM (inactive) | > 100 µM (inactive) |  | > 100 µM (inactive) | > 100 µM (inactive) |  |  | > 100 µM (inactive) | > 100 µM (inactive) |  |
| CCOC(=O)/C1=C(\C)N(Cc2ccccc2)C(=O)c2ccccc2C(=O)c2c(OC(C)=O)ccc(OC(C)=O)c21 | 18.9 µM (inactive) | 41.7 µM (inactive) |  | > 100 µM (inactive) | 43.6 µM (inactive) | 58.3 µM (inactive) | > 100 µM (inactive) | 40.2 µM (inactive) | 65.3 µM (inactive) | 33.3 µM (inactive) | 7.6 µM (inactive) | 97.5 µM (inactive) | 18.3 µM (inactive) | 33.5 µM (inactive) |  | 47.6 µM (inactive) | 39.4 µM (inactive) | 29.9 µM (inactive) | > 100 µM (inactive) |
| O=C(CCC(C(=O)OCc1ccccc1)C(=O)OCc1ccccc1)Nc1ccc(OCc2ccccc2)cc1 |  | > 100 µM (inactive) | > 100 µM (inactive) | > 100 µM (inactive) | > 100 µM (inactive) | 63.4 µM (inactive) | 22.6 µM (inactive) | > 100 µM (inactive) | > 100 µM (inactive) |  | > 100 µM (inactive) |  | > 100 µM (inactive) | 52.7 µM (inactive) |  | 67.8 µM (inactive) | 59.4 µM (inactive) | > 100 µM (inactive) | > 100 µM (inactive) |
| COc1ccc(-c2nc(O)c3ccccc3n2)cc1OC | 54.2 µM (inactive) | > 100 µM (inactive) | 18.4 µM (inactive) | 23.8 µM (inactive) | 25.2 µM (inactive) |  | 24.4 µM (inactive) | > 100 µM (inactive) | > 100 µM (inactive) | > 100 µM (inactive) | > 100 µM (inactive) | 98.4 µM (inactive) | 18.1 µM (inactive) | 29.2 µM (inactive) | 64 µM (inactive) | > 100 µM (inactive) | > 100 µM (inactive) |  |  |
